According to US9957299B2, “Peptidomimetic macrocycles” (AILERON THERAPEUTICS, INC., priority 2010, dated 2018):
pIC50: −log10 of the molar value. Numbered stars: 1 amine (or outer) side, 2 acyl side, 3 side chain; on linkers, the order of the positions; unused ones are H or OH. Bridge positions count the residues as written; N and C are the ends. Square brackets hold non-standard residues; d marks the D form. Peptide text beside a SMILES is read from it. * marks the point of attachment. Trp(6-Cl) = N[C@@H](Cc1c[nH]c2cc(Cl)ccc12)C(=O)O; X3 = C=CCCCC(CCCC=C)(N[*:1])C(=O)[*:2]; R8 = C=CCCCCCC[C@@](C)(N)C(=O)O; S8 = C=CCCCCCC[C@](C)(N)C(=O)O; S5 = C=CCCC[C@](C)(N)C(=O)O; Nle = CCCC[C@H](N)C(=O)O; X1 = COCCOCCOCCOC(=O)*; Ac3c = NC1(C(=O)O)CC1

test system: not listed separately; assay: circular dichroism; details: aqueous, '0% TFE' (buffer not stated; general: 50 mM potassium phosphate pH 7 or water); pH ns; ns °C; 25-50 uM (general text)

Row | Molecule | helicity
1 | C=CCCCCCC[C@](C)(NC(=O)[C@H](CC(C)C)NC(=O)[C@H](CC(C)C)NC(=O)[C@H](CCCNC(=N)N)NC(=O)[C@H](Cc1c[nH]c2ccccc12)NC(=O)[C@H](CC(C)C)NC(=O)[C@H](CC(N)=O)NC(=O)C(CCCC=C)(CCCC=C)NC(=O)[C@H](Cc1ccccc1)NC(=O)[C@@H](NC(=O)[C@H](CCC(N)=O)NC(=O)[C@](C)(CCCC=C)NC(=O)[C@H](CO)NC(=O)[C@H](CCC(N)=O)NC(C)=O)[C@@H](C)O)C(=O)N[C@@H](CCC(N)=O)C(=O)N[C@@H](CC(N)=O)C(N)=O (Ac-QS[S5]QTF[X3]NLWRLL[S8]QN-NH2) | 99%
2 | CC(=O)N[C@@H](CCC(N)=O)C(=O)N[C@H](C(=O)N[C@@H](Cc1ccccc1)C(=O)N[C@]1(C)CCCCCCC=CCCC[C@@](C)(C(=O)N[C@@H](CO)C(N)=O)NC(=O)[C@H](CC(C)C)NC(=O)[C@H](CCC(N)=O)NC(=O)[C@H](CO)NC(=O)[C@H](Cc2c[nH]c3ccccc23)NC(=O)[C@H](Cc2c[nH]c3ccccc23)NC(=O)[C@H](Cc2c[nH]cn2)NC1=O)[C@@H](C)O (Ac-QTF[R8]HWWSQL[S5]S-NH2; staple 4-11) | 21.6%
3 | CC(=O)N[C@@H](CCCNC(=N)N)C(=O)N[C@@H](CO)C(=O)N[C@@H](CCC(N)=O)C(=O)N[C@@H](CCC(N)=O)C(=O)N[C@H](C(=O)N[C@@H](Cc1ccccc1)C(=O)N[C@]1(C)CCCCCCC=CCCC[C@@](C)(C(=O)N[C@@H](CCC(N)=O)C(=O)N[C@@H](CC(N)=O)C(N)=O)NC(=O)[C@H](CC(C)C)NC(=O)[C@H](CC(C)C)NC(=O)[C@H](CCCNC(=N)N)NC(=O)[C@H](Cc2c[nH]c3ccccc23)NC(=O)[C@H](CC(C)C)NC(=O)[C@H](CC(N)=O)NC1=O)[C@@H](C)O (Ac-RSQQTF[R8]NLWRLL[S5]QN-NH2; staple 7-14) | 62.3%
4 | CCCC[C@H](NC(C)=O)C(=O)N1CCC[C@H]1C(=O)N[C@@H](CCCNC(=N)N)C(=O)N[C@@H](Cc1ccccc1)C(=O)N[C@]1(C)CCCCCCC=CCCC[C@@](C)(C(N)=O)NC(=O)[C@H](CC(C)C)NC(=O)[C@H](CC(C)C)NC(=O)[C@H](CCCNC(=N)N)NC(=O)[C@H](Cc2c[nH]c3ccccc23)NC(=O)[C@H](Cc2ccc(O)cc2)NC(=O)[C@H](CC(N)=O)NC1=O (Ac-[Nle]PRF[R8]NYWRLL[S5]-NH2; staple 5-12) | 54.4%
5 | CCCC[C@H](NC(C)=O)C(=O)N1CCC[C@H]1C(=O)N[C@@H](CCCNC(=N)N)C(=O)N[C@@H](Cc1ccccc1)C(=O)N[C@]1(C)CCCCCCC=CCCC[C@@](C)(C(=O)N[C@@H](CCC(N)=O)C(=O)N[C@@H](CC(N)=O)C(N)=O)NC(=O)[C@H](CC(C)C)NC(=O)[C@H](CC(C)C)NC(=O)[C@H](CCCNC(=N)N)NC(=O)[C@H](Cc2c[nH]c3ccccc23)NC(=O)[C@H](Cc2ccc(O)cc2)NC(=O)[C@H](CC(N)=O)NC1=O (Ac-[Nle]PRF[R8]NYWRLL[S5]QN-NH2; staple 5-12) | 62.6%
6 | Ac-MPRFMDYWEGLN-NH2 | 7.5%
7 | Ac-QSQQTFSNLWRLLPQN-NH2 | 5%
8 | Ac-QTFEHWWSQLLS-NH2 | 21.6%
9 | Ac-TSFAEYWNLLSP-NH2 | 6.8%

molecular target: HDMx (Homo sapiens, UniProt O15151); assay: FP Competition Blinding Assay | HDMx IC50 (nM); details: not given
Sequence (O15151 whole entry, looked up): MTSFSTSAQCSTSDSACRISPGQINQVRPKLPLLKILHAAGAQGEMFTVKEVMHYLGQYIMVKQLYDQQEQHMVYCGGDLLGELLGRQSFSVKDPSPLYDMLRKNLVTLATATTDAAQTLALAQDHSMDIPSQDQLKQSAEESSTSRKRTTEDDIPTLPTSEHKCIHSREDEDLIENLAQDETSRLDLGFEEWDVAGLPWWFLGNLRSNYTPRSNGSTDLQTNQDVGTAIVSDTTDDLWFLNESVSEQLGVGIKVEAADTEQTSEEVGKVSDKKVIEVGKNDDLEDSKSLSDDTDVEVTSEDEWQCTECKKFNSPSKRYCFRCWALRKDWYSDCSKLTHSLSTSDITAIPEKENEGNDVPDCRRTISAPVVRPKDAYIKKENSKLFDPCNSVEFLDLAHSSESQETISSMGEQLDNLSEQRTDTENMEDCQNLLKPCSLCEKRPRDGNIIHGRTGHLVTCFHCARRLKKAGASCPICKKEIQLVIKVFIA

Row | pIC50 | Molecule
10 | 6.01 | CC(=O)N[C@@H](Cc1ccccc1)C(=O)N[C@]1(C)CCCCCCC=CCCC[C@@](C)(C(=O)N[C@@H](C)C(N)=O)NC(=O)[C@H](CC(C)C)NC(=O)C2(CC2)NC(=O)[C@H](CCC(=O)O)NC(=O)[C@H](Cc2c[nH]c3cc(Cl)ccc23)NC(=O)[C@H](Cc2ccc(O)cc2)NC(=O)[C@H](C)NC1=O [SP-128, Ac- F $r8 A Y 6clW E Ac3c L $ A -NH2] (Ac-F[R8]AY[Trp(6-Cl)]E[Ac3c]L[S5]A-NH2; staple 2-9)
11 | 7.01 | CC(=O)N[C@@H](CC(C)C)C(=O)N[C@H](C(=O)N[C@@H](Cc1ccccc1)C(=O)N[C@]1(C)CCCCCCC=CCCC[C@@](C)(C(=O)N[C@@H](CO)C(N)=O)NC(=O)[C@H](CC(C)C)NC(=O)[C@H](CCC(N)=O)NC(=O)[C@H](C)NC(=O)[C@H](Cc2c[nH]c3ccccc23)NC(=O)[C@H](Cc2ccc(O)cc2)NC(=O)[C@H](C)NC1=O)[C@@H](C)O [SP-191, Ac- L T F $r8 A Y W A Q L $ S -NH2] (Ac-LTF[R8]AYWAQL[S5]S-NH2; staple 4-11)
12 | 6.33 | CC(=O)N[C@@H](CC(C)C)C(=O)N[C@H](C(=O)N[C@@H](Cc1ccccc1)C(=O)N[C@]1(C)CCCCCCC=CCCC[C@@](C)(C(=O)N[C@@H](C)C(N)=O)NC(=O)[C@H](CC(C)C)NC(=O)[C@H](CCC(N)=O)NC(=O)[C@H](C)NC(=O)[C@H](Cc2c[nH]c3ccccc23)NC(=O)[C@H](Cc2ccc(O)cc2)NC(=O)[C@H](C)NC1=O)[C@@H](C)O [SP-194, Ac- L T F $r8 A Y W A Q L $ A -NH2] (Ac-LTF[R8]AYWAQL[S5]A-NH2; staple 4-11)
13 | 6.50 | CC(=O)N[C@@H](CC(C)C)C(=O)N[C@H](C(=O)N[C@@H](Cc1ccccc1)C(=O)N[C@]1(C)CCCCCCC=CCCC[C@@](C)(C(=O)N[C@@H](CO)C(N)=O)NC(=O)[C@H](CC(C)C)NC(=O)[C@H](CCC(N)=O)NC(=O)[C@H](C)NC(=O)[C@H](Cc2c[nH]c3ccccc23)NC(=O)[C@H](Cc2ccc(O)cc2)NC(=O)[C@H](Cc2ccccc2)NC1=O)[C@@H](C)O [SP-267, Ac- L T F $r8 F Y W A Q L $ S -NH2] (Ac-LTF[R8]FYWAQL[S5]S-NH2; staple 4-11)
14 | 6.71 | COCCOCCOCCOC(=O)N[C@@H](CC(C)C)C(=O)N[C@H](C(=O)N[C@@H](Cc1ccccc1)C(=O)N[C@]1(C)CCCCCCC=CCCC[C@@](C)(C(=O)N[C@@H](CO)C(N)=O)NC(=O)[C@H](CC(C)C)NC(=O)[C@H](CCC(N)=O)NC(=O)[C@H](C)NC(=O)[C@H](Cc2c[nH]c3ccccc23)NC(=O)[C@H](Cc2ccc(O)cc2)NC(=O)[C@H](C)NC1=O)[C@@H](C)O [SP-580, mdPEG3-L T F $r8 A Y W A Q L $ S -NH2] (X1-LTF[R8]AYWAQL[S5]S-NH2; staple 4-11)

molecular target: HDM2 (Homo sapiens, UniProt Q00987); assay: FP Competition Blinding Assay | HDM2 IC50 (nM); details: not given
Sequence (Q00987 whole entry, looked up): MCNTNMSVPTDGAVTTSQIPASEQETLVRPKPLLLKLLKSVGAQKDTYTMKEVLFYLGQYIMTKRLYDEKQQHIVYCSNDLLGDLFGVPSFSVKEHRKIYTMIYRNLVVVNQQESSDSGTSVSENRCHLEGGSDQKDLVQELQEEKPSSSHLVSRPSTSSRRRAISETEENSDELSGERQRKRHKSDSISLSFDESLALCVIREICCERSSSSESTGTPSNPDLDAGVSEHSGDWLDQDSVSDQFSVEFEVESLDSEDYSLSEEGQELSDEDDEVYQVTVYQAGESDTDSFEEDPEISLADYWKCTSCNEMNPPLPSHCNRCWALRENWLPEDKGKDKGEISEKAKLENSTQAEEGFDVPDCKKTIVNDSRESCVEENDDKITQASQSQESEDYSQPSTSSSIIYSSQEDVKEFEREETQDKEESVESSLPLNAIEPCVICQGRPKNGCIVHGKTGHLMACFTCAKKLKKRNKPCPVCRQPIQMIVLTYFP

Row | pIC50 | Molecule
15 | 7.13 | CC(=O)N[C@@H](CC(C)C)C(=O)N[C@H](C(=O)N[C@@H](Cc1ccccc1)C(=O)N[C@]1(C)CCCCCCC=CCCC[C@@](C)(C(=O)N[C@@H](CO)C(N)=O)NC(=O)[C@H](CC(C)C)NC(=O)[C@H](CCC(N)=O)NC(=O)[C@H](C)NC(=O)[C@H](Cc2c[nH]c3ccccc23)NC(=O)[C@H](Cc2ccc(O)cc2)NC(=O)[C@H](C)NC1=O)[C@@H](C)O [SP-191, Ac- L T F $r8 A Y W A Q L $ S -NH2] (Ac-LTF[R8]AYWAQL[S5]S-NH2; staple 4-11)
16 | 6.73 | CC(=O)N[C@@H](Cc1c[nH]c2ccccc12)C(=O)N[C@H](C(=O)N[C@@H](Cc1ccccc1)C(=O)N[C@]1(C)CCCCCCC=CCCC[C@@](C)(C(=O)N[C@@H](CO)C(N)=O)NC(=O)[C@H](CC(C)C)NC(=O)[C@H](CCC(N)=O)NC(=O)[C@H](C)NC(=O)[C@H](Cc2c[nH]c3ccccc23)NC(=O)[C@H](Cc2ccc(O)cc2)NC(=O)[C@H](Cc2c[nH]cn2)NC1=O)[C@@H](C)O [SP-256, Ac- W T F $r8 H Y W A Q L $ S -NH2] (Ac-WTF[R8]HYWAQL[S5]S-NH2; staple 4-11)
17 | 7.18 | CC(=O)N[C@@H](CC(C)C)C(=O)N[C@H](C(=O)N[C@@H](Cc1ccccc1)C(=O)N[C@]1(C)CCCCCCC=CCCC[C@@](C)(C(=O)N[C@@H](CO)C(N)=O)NC(=O)[C@H](CC(C)C)NC(=O)[C@H](CCC(N)=O)NC(=O)[C@H](C)NC(=O)[C@H](Cc2c[nH]c3ccccc23)NC(=O)[C@H](Cc2ccc(O)cc2)NC(=O)[C@H](C(C)C)NC1=O)[C@@H](C)O [SP-266, Ac- L T F $r8 V Y W A Q L $ S -NH2] (Ac-LTF[R8]VYWAQL[S5]S-NH2; staple 4-11)
18 | 7.05 | CC(=O)N[C@@H](CC(C)C)C(=O)N[C@H](C(=O)N[C@@H](Cc1ccccc1)C(=O)N[C@]1(C)CCCCCCC=CCCC[C@@](C)(C(=O)N[C@@H](CO)C(N)=O)NC(=O)[C@H](CC(C)C)NC(=O)[C@H](CCC(N)=O)NC(=O)[C@H](CO)NC(=O)[C@H](Cc2c[nH]c3ccccc23)NC(=O)[C@H](Cc2ccc(O)cc2)NC(=O)[C@H](C)NC1=O)[C@@H](C)O [SP-360, Ac- L T F $r8 A Y W S Q L $ S -NH2] (Ac-LTF[R8]AYWSQL[S5]S-NH2; staple 4-11)
19 | 7.79 | CC(=O)N[C@@H](CC(C)C)C(=O)N[C@H](C(=O)N[C@@H](Cc1ccccc1)C(=O)N[C@]1(C)CCCCCCC=CCCC[C@@](C)(C(=O)N[C@@H](CO)C(N)=O)NC(=O)[C@H](CC(C)C)NC(=O)[C@H](CCC(N)=O)NC(=O)[C@H](C)NC(=O)[C@H](Cc2c[nH]c3ccccc23)NC(=O)[C@H](Cc2ccc(O)cc2)NC(=O)[C@H](CCC(=O)O)NC1=O)[C@@H](C)O [SP-512, Ac- L T F $r8 E Y W A Q F $ S -NH2] (Ac-LTF[R8]EYWAQL[S5]S-NH2; staple 4-11)
20 | 7.09 | COCCOCCOCCOC(=O)N[C@@H](CC(C)C)C(=O)N[C@H](C(=O)N[C@@H](Cc1ccccc1)C(=O)N[C@]1(C)CCCCCCC=CCCC[C@@](C)(C(=O)N[C@@H](CO)C(N)=O)NC(=O)[C@H](CC(C)C)NC(=O)[C@H](CCC(N)=O)NC(=O)[C@H](C)NC(=O)[C@H](Cc2c[nH]c3ccccc23)NC(=O)[C@H](Cc2ccc(O)cc2)NC(=O)[C@H](C)NC1=O)[C@@H](C)O [SP-580, mdPEG3-L T F $r8 A Y W A Q L $ S -NH2] (X1-LTF[R8]AYWAQL[S5]S-NH2; staple 4-11)
